In patent US9499550B2 (BRISTOL-MYERS SQUIBB COMPANY, priority 2012, dated 2016) one finds EC50 data, which are given here for 13 compounds.

For orientation: EC50 means the concentration needed to bring the measured effect to its halfway point.

Assay [1] has as its system HCV genotype 1a (H77 strain) replicon in HUH-7 cells. Description: HCV replicon luciferase reporter assay, genotype 1a. Type of assay: cell-based. Conditions: Hepatitis C virus, Huh-7, 72 h, HCV genotype 1a replicon luciferase, 3 days incubation, read-out: LE_1a (EC50, range). Put shortly:
(§1)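 Replicon inhibition for both genotypes was measured as Renilla luciferase signal (EnduRen, 7.5 μM final, 2 h) after 3-day, 37° C exposure of replicon-bearing HUH-7 cells in 4% FCS DMEM, 0.5% DMSO. The 1b construct carries S1179I; the 1a H77 construct carries P1496L and S2204I. Twenty-point, 3-fold dilutions were fitted four-parametrically for EC50, and CC50 was taken from multiplexed Cell Titer-Blue.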
Background: Replicon systems follow genome replication, usually without infectious particles.

Assay [2] has as its system HCV genotype 1b (Con1) replicon in HUH-7 cells. Description: HCV replicon luciferase reporter assay, genotype 1b. The assay is classed as cell-based. The following applies: Hepatitis C virus, Huh-7, 72 h, HCV genotype 1b replicon luciferase, 3 days incubation, read-out: LE_1b (EC50, range). Put shortly:
as §1

SMILES strings stand for the structures.

For `CC[C@@H]1C[C@H](C)CC/C=C\[C@@H]2C[C@@]2(C(=O)NS(=O)(=O)C2CC2)NC(=O)[C@@H]2C[C@@H](Oc3nccc4cc(OC)c(F)cc34)CN2C(=O)[C@H]1NC(=O)OC(C)(C)C(C)(F)F` [Compound 5473, 3,3-difluoro-2-methylbutan-2-yl((2R,6S,7R,9R,13aS,14aR,16aS,Z)-14a-((cyclopropylsulfonyl)carbamoyl)-7-ethyl-2-((7-fluoro-6-methoxyisoquinolin-1-yl)oxy)-9-methyl-5,16-dioxo-1,2,3,5,6,7,8,9,10,11,13a,14,14a,15,16,16a-hexadecahydrocyclopropa[e]pyrrolo[1,2-a][1,4]diazacyclopentadecin-6-yl)carbamate], the EC50 was 1.01 to 5 nM in assay [1] and 0.1 to 0.5 nM in assay [2].

As for `COc1ccc2c(O[C@@H]3C[C@H]4C(=O)N[C@]5(C(=O)NS(=O)(=O)C6CC6)C[C@H]5/C=C\CC[C@H](C)C[C@@H](C)[C@H](NC(=O)OC(C)(C)C(C)(F)F)C(=O)N4C3)nc(-c3ccc(OC(C)C)cn3)cc2c1` [Compound 5474, 3,3-difluoro-2-methylbutan-2-yl((2R,6S,7R,9S,13aS,14aR,16aS,Z)-14a-((cyclopropylsulfonyl)carbamoyl)-2-((3-(5-isopropoxypyridin-2-yl)-6-methoxyisoquinolin-1-yl)oxy)-7,9-dimethyl-5,16-dioxo-1,2,3,5,6,7,8,9,10,11,13a,14,14a,15,16,16a-hexadecahydrocyclopropa[e]pyrrolo[1,2-a][1,4]diazacyclopentadecin-6-yl)carbamate], the concentration for a half-maximal effect (EC50) in assay [1] and in assay [2] was 1.01 to 5 nM each time.

Take `COc1ccc2c(O[C@@H]3C[C@H]4C(=O)N[C@]5(C(=O)NS(=O)(=O)C6CC6)C[C@H]5/C=C\CC[C@@H](C)C[C@@H](C)[C@H](NC(=O)OC(C)(C)C(C)(F)F)C(=O)N4C3)nc(-c3ccc(OC(C)C)cn3)cc2c1` [Compound 5475, 3,3-difluoro-2-methylbutan-2-yl((2R,6S,7R,9R,13aS,14aR,16aS,Z)-14a-((cyclopropylsulfonyl)carbamoyl)-2-((3-(5-isopropoxypyridin-2-yl)-6-methoxyisoquinolin-1-yl)oxy)-7,9-dimethyl-5,16-dioxo-1,2,3,5,6,7,8,9,10,11,13a,14,14a,15,16,16a-hexadecahydrocyclopropa[e]pyrrolo[1,2-a][1,4]diazacyclopentadecin-6-yl)carbamate]: the EC50 in assay [1] and in assay [2] was 0.51 to 1 nM each time.

In the case of `COc1ccc2c(O[C@@H]3C[C@H]4C(=O)N[C@]5(C(=O)NS(=O)(=O)C6(C)CC6)C[C@H]5/C=C\CC[C@H](C)C[C@@H](C)[C@H](NC(=O)OC(C)(C)C(C)(F)F)C(=O)N4C3)nc(-c3ccc(OC(C)C)cn3)cc2c1` [Compound 5476, 3,3-difluoro-2-methylbutan-2-yl((2R,6S,7R,9S,13aS,14aR,16aS,Z)-2-((3-(5-isopropoxypyridin-2-yl)-6-methoxyisoquinolin-1-yl)oxy)-7,9-dimethyl-14a-(((1-methylcyclopropyl)sulfonyl)carbamoyl)-5,16-dioxo-1,2,3,5,6,7,8,9,10,11,13a,14,14a,15,16,16a-hexadecahydrocyclopropa[e]pyrrolo[1,2-a][1,4]diazacyclopentadecin-6-yl)carbamate], the values for the concentration for a half-maximal effect (EC50) in assay [1] and in assay [2] were 5.01 to 35 nM and 1.01 to 5 nM, respectively.

In the case of `COc1ccc2c(O[C@@H]3C[C@H]4C(=O)N[C@]5(C(=O)NS(=O)(=O)C6(C)CC6)C[C@H]5/C=C\CC[C@@H](C)C[C@@H](C)[C@H](NC(=O)OC(C)(C)C(C)(F)F)C(=O)N4C3)nc(-c3ccc(OC(C)C)cn3)cc2c1` [Compound 5477, 3,3-difluoro-2-methylbutan-2-yl((2R,6S,7R,9R,13aS,14aR,16aS,Z)-2-((3-(5-isopropoxypyridin-2-yl)-6-methoxyisoquinolin-1-yl)oxy)-7,9-dimethyl-14a-(((1-methylcyclopropyl)sulfonyl)carbamoyl)-5,16-dioxo-1,2,3,5,6,7,8,9,10,11,13a,14,14a,15,16,16a-hexadecahydrocyclopropa[e]pyrrolo[1,2-a][1,4]diazacyclopentadecin-6-yl)carbamate], the 50% effective concentration (EC50) in assay [1] and in assay [2] was 1.01 to 5 nM each time.

In the case of `CC[C@@H]1C[C@H](C)CC/C=C\[C@@H]2C[C@@]2(C(=O)NS(=O)(=O)C2CC2)NC(=O)[C@@H]2C[C@@H](Oc3nc(-c4ccc(OC(C)C)cn4)cc4cc(OC)ccc34)CN2C(=O)[C@H]1NC(=O)OC(C)(C)C` [Compound 5479, tert-butyl ((2R,6S,7R,9R,13aS,14aR,16aS,Z)-14a-((cyclopropylsulfonyl)carbamoyl)-7-ethyl-2-((3-(5-isopropoxypyridin-2-yl)-6-methoxyisoquinolin-1-yl)oxy)-9-methyl-5,16-dioxo-1,2,3,5,6,7,8,9,10,11,13a,14,14a,15,16,16a-hexadecahydrocyclopropa[e]pyrrolo[1,2-a][1,4]diazacyclopentadecin-6-yl)carbamate], the concentration giving a half-maximal response (EC50) in assay [1] lay within 1.01 to 5 nM; in assay [2], 0.51 to 1 nM.

`CC[C@@H]1C[C@H](C)CC/C=C\[C@@H]2C[C@@]2(C(=O)NS(=O)(=O)C2(C)CC2)NC(=O)[C@@H]2C[C@@H](Oc3nc(-c4ccc(OC(C)C)cn4)cc4cc(OC)ccc34)CN2C(=O)[C@H]1NC(=O)OC(C)(C)C` [Compound 5481, tert-butyl ((2R,6S,7R,9R,13aS,14aR,16aS,Z)-7-ethyl-2-((3-(5-isopropoxypyridin-2-yl)-6-methoxyisoquinolin-1-yl)oxy)-9-methyl-14a-(((1-methylcyclopropyl)sulfonyl)carbamoyl)-5,16-dioxo-1,2,3,5,6,7,8,9,10,11,13a,14,14a,15,16,16a-hexadecahydrocyclopropa[e]pyrrolo[1,2-a][1,4]diazacyclopentadecin-6-yl)carbamate]: the concentration giving a half-maximal response (EC50) in assay [1] and in assay [2] was 1.01 to 5 nM in each case.

Regarding `CC[C@@H]1C[C@H](C)CC/C=C\[C@@H]2C[C@@]2(C(=O)NS(=O)(=O)C2CC2)NC(=O)[C@@H]2C[C@@H](Oc3nc(-c4ccc(OC(C)C)cn4)cc4cc(OC)ccc34)CN2C(=O)[C@H]1NC(=O)OC(C)(C)C(C)(F)F` [Compound 5483, 3,3-difluoro-2-methylbutan-2-yl((2R,6S,7R,9R,13aS,14aR,16aS,Z)-14a-((cyclopropylsulfonyl)carbamoyl)-7-ethyl-2-((3-(5-isopropoxypyridin-2-yl)-6-methoxyisoquinolin-1-yl)oxy)-9-methyl-5,16-dioxo-1,2,3,5,6,7,8,9,10,11,13a,14,14a,15,16,16a-hexadecahydrocyclopropa[e]pyrrolo[1,2-a][1,4]diazacyclopentadecin-6-yl)carbamate], the half-maximal effective concentration (EC50) in assay [1] and in assay [2] was 1.01 to 5 nM each time.

With `CC[C@@H]1C[C@H](C)CC/C=C\[C@@H]2C[C@@]2(C(=O)NS(=O)(=O)C2CC2)NC(=O)[C@@H]2C[C@@H](Oc3nc(-c4ccc(OC(C)C)cn4)cc4cc(OC)ccc34)CN2C(=O)[C@H]1NC(=O)OC(C)(C)C(F)(F)F` [Compound 5485, 1,1,1-trifluoro-2-methylpropan-2-yl((2R,6S,7R,9R,13aS,14aR,16aS,Z)-14a-((cyclopropylsulfonyl)carbamoyl)-7-ethyl-2-((3-(5-isopropoxypyridin-2-yl)-6-methoxyisoquinolin-1-yl)oxy)-9-methyl-5,16-dioxo-1,2,3,5,6,7,8,9,10,11,13a,14,14a,15,16,16a-hexadecahydrocyclopropa[e]pyrrolo[1,2-a][1,4]diazacyclopentadecin-6-yl)carbamate], the EC50 in assay [1] and in assay [2] was 1.01 to 5 nM in each case.

For the compound `CC[C@@H]1C[C@H](C)CC/C=C\[C@@H]2C[C@@]2(C(=O)NS(=O)(=O)C2(C)CC2)NC(=O)[C@@H]2C[C@@H](Oc3nc(-c4ccc(OC(C)C)cn4)cc4cc(OC)ccc34)CN2C(=O)[C@H]1NC(=O)OC(C)(C)C(C)(F)F` [Compound 5487, 3,3-difluoro-2-methylbutan-2-yl((2R,6S,7R,9R,13aS,14aR,16aS,Z)-7-ethyl-2-((3-(5-isopropoxypyridin-2-yl)-6-methoxyisoquinolin-1-yl)oxy)-9-methyl-14a-(((1-methylcyclopropyl)sulfonyl)carbamoyl)-5,16-dioxo-1,2,3,5,6,7,8,9,10,11,13a,14,14a,15,16,16a-hexadecahydrocyclopropa[e]pyrrolo[1,2-a][1,4]diazacyclopentadecin-6-yl)carbamate], the EC50 in assay [1] and in assay [2] was 1.01 to 5 nM in each case.

With `CC[C@@H]1C[C@H](C)CC/C=C\[C@@H]2C[C@@]2(C(=O)NS(=O)(=O)C2(C)CC2)NC(=O)[C@@H]2C[C@@H](Oc3nc(-c4ccc(OC(C)C)cn4)cc4cc(OC)ccc34)CN2C(=O)[C@H]1NC(=O)OC(C)(C)C(F)(F)F` [Compound 5489, 1,1,1-trifluoro-2-methylpropan-2-yl((2R,6S,7R,9R,13aS,14aR,16aS,Z)-7-ethyl-2-((3-(5-isopropoxypyridin-2-yl)-6-methoxyisoquinolin-1-yl)oxy)-9-methyl-14a-(((1-methylcyclopropyl)sulfonyl)carbamoyl)-5,16-dioxo-1,2,3,5,6,7,8,9,10,11,13a,14,14a,15,16,16a-hexadecahydrocyclopropa[e]pyrrolo[1,2-a][1,4]diazacyclopentadecin-6-yl)carbamate], the concentration for a half-maximal effect (EC50) in assay [1] and in assay [2] was 1.01 to 5 nM throughout.

On to `[2H]C([2H])([2H])Oc1cc2ccnc(O[C@@H]3C[C@H]4C(=O)N[C@]5(C(=O)NS(=O)(=O)C6(C)CC6)C[C@H]5/C=C\CC[C@@H](C)C[C@@H](CC)[C@H](NC(=O)OC(C)(C)C(F)(F)F)C(=O)N4C3)c2cc1F` [Compound 5503], for which the EC50 in assay [1] lay within 1.01 to 5 nM; in assay [2], 0.51 to 1 nM.

As for `[2H]C([2H])([2H])Oc1cc2ccnc(O[C@@H]3C[C@H]4C(=O)N[C@]5(C(=O)NS(=O)(=O)C6(C)CC6)C[C@H]5/C=C\CC[C@@H](C)C[C@@H](CC)[C@H](NC(=O)OC(C([2H])([2H])[2H])(C([2H])([2H])[2H])C(F)(F)F)C(=O)N4C3)c2cc1F` [Compound 5505], the half-maximal effective concentration (EC50) in assay [1] was 5.01 to 35 nM; in assay [2] it was 1.01 to 5 nM.
